From PMC9848257, “Design and synthesis of novel rigid dibenzo[b,f]azepines through ring closure technique as promising anticancer candidates against leukaemia and acting as selective topoisomerase II inhibitors and DNA intercalators” (Journal of Enzyme Inhibition and Medicinal Chemistry, 2023)

Assays:
[1] = system: Solid Ehrlich carcinoma (SEC); assay: In vivo anti-tumour activity in SEC-bearing mice; design: species or system Swiss albino mice; settings: 6 mg/Kg B.W., IP
Protocol: (§1) The full methodology of tumour induction, treatments, and blood measurements was carried out according to the described details in the supporting information (SI 5). Moreover, the experimental protocol was approved by the Research Ethics Committee at Suez Canal University (Approval number REC139/2022, Chemistry Department, Faculty of Science, Suez Canal University). […]
SI 5.1. Animals and tumor cell line
Adult female Swiss albino mice purchased from Theodor Bilharzia Research Institute, Giza, Egypt, with an average body weight of (18-23) g was used. Mice were housed under constant conditions of 12 h light/dark cycle in a […], with free access to standard laboratory mice food and water.
All procedures related to care and maintenance of the animals were performed according to the international guiding principles for animal research and approved by Faculty of Science, Suez Canal University bioethics and animal ethics committee (Approval number REC-01-2022).
Solid Ehrlich carcinoma (SEC) were got from the National Cancer Institute (Cairo University, Egypt). The tumor cell line was proliferated in mice through serial intraperitoneal (I.P.) transplantation of a volume of 0.2 mL physiological saline contains 1 × 10^6 viable cells for 24 h. SEC cells were collected 7 days after I.P. implantation. The harvested cells were diluted with saline to obtain a concentration of 5 × 10^6 viable SEC cells/mL. A volume of 0.2 mL saline contains 1 × 10^6 SEC cells […]
(§2) that were I.P. implanted into each normal mouse. SEC cells (1 × 10^6 tumor cells/mouse) were implanted subcutaneously into the right thigh of the hind limb.
(§3) The experimental animals were randomly divided into four groups. Group 1 served as the normal saline control. Group 2 served as the SEC control (1 × 10^6 cells/mouse). Group 3 served as the compound-treated group (6 mg/kg B.Wt., I.P.). Group 4 received the standard anticancer drug of […]
(§4) survival were recorded daily until the 24th day in both treated and control groups. At the end of experiment, the blood of each group was collected under light anesthesia for estimation of hematological and biochemical assays. The anesthetized animals were then sacrificed for evaluation of the antitumor activity and histopathological examination.
SI 5.2. Antitumor potentiality
It includes tumor volume, weight, and tumor inhibition ration (TIR%). Time interval measurements of tumor volume using digital Vernier caliper (Tricle Brand, Shanghai, China). Measure tumor length and width using clipper and then calculate tumor volume using formulations V = (L x W x W)/2, where V is tumor volume, W is tumor width, L is tumor length. While TIR% was calculated according to the following equation: […]. […]

[2] = system: leukaemia SR cells; assay: Anti-proliferative effect against SR cell line (MTT assay); assay type: cell-based; settings: Homo sapiens; leukaemia SR cells; unit as in head of Table 3; read-out: Cytotoxicity IC50, SR
Protocol: The anti-proliferative effect of the 5e counterpart against the SR cell line was estimated using the MTT assay protocol.
Depending on the previous results, the cytotoxic activity of the designed candidate 5e was then evaluated against leukaemia SR cells. Doxorubicin was also evaluated as a reference drug.

[3] = Cytotoxic effect against normal cell line; assay type: cell-based; settings: human, normal cell line PSC-800-011; read-out: Cytotoxicity IC50, PSC-800-011
Protocol: Following, the cytotoxic effect of compound 5e against a normal cell line, PSC-800–011, was also assigned to evaluate the selectivity of the compound towards the cancer cell lines. […] However, the selectivity index (SI) of compound 5e was also calculated to confirm its selectivity. It was known that any sample that has an SI value higher than 3 will be considered to have high selectivity.

[4] = Liver enzymes (ALT, AST) in SEC-bearing mice; assay type: in vivo, Swiss albino mice; settings: 6 mg/Kg B.W., IP
Protocol: as §1, §2, §3
as §4, with “examination. […]” for “examination.”
At the end of the experiment, animals from different groups were sacrificed, and blood samples were collected for determination of liver enzymes ALT, AST levels. Activities of aspartate aminotransferase (AST) and alanine aminotransferase (ALT) were evaluated using commercial kits (ELITech clinical systems, France). […]

COc1cccc2c1C(=O)c1c(O)c3c(c(O)c1C2=O)C[C@@](O)(C(=O)CO)C[C@@H]3O[C@H]1C[C@H](N)[C@H](O)[C@H](C)O1 [Doxorubicin, reference compound]
Solid tumour mass ([1]; SEC control 226 mg): 82.3 mg | Tumour volume ([1]; SEC control 80.6 mm^3): 27.5 mm^3 | IC50 [2]: 3.78 ± 0.14 µM | IC50 [3]: 12.8 ± 0.79 µM | ALT ([4]; SEC control 65.9 U/L): 34.8 U/L | AST ([4]; SEC control 71 U/L): 35.6 U/L
